According to ChEMBL document CHEMBL3886982, “Substituted bicyclic dihydropyrimidinones and their use as inhibitors of neutrophil elastase activity” (2016):

Target: T1, Neutrophil elastase (Homo sapiens, UniProt P08246)
T1 sequence (P08246 whole entry): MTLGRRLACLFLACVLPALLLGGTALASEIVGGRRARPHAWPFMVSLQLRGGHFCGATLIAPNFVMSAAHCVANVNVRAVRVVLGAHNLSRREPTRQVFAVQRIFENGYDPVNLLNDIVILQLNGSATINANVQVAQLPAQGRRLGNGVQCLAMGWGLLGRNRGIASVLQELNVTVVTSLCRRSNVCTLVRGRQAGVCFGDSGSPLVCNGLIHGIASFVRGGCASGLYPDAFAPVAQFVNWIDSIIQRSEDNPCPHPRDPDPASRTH
Assay: Human Neutrophil Elastase Assay: The following buffers were used: Compound buffer: 100 mM Tris, 500 mM NaCl, adjusted to pH 7.5; Assay buffer: 100 mM Tris, 500 mM NaCl, adjusted to pH 7.5, containing 0.01% BSA.Assay conditions: Test compounds were prediluted in DMSO and subsequently in compound buffer (5% DMSO final). 5 μL of these compound dilutions were mixed with 10 μl Neutrophil elastase …

IC50: 7.3 nM
SMILES: CN1C(=O)N(c2cccc(C(F)(F)F)c2)C2=C(C(=O)CC2)C1c1ccc(C#N)cc1-c1ccnn1C (stereo unspecified)
